Source: patent publication US20220031684A1, “PROPHYLACTIC EFFICACY OF SEROTONIN 4 RECEPTOR AGONISTS AGAINST STRESS” (THE TRUSTEES OF COLUMBIA UNIVERSITY IN THE CITY OF NEW YORK, priority 2019, published 2022)

Key:
Assay type in all cases: in vivo
[1] = test system: C57BL/6NTac mice; assay: Elevated plus maze (EPM) in CORT model; details: male C57BL/6NTac; Flx 18 mg/kg/day or RS-67,333 1.5 mg/kg/day for 3 weeks prior to CORT
Description: This chronic CORT elevation dysregulates the hypothalamic-pituitary-adrenal axis (HPA) in a manner similar to that observed in clinical depression. The dose and duration of CORT treatment was selected based on previous studies. CORT (35 μg/ml, equivalent to about 5 mg/kg/day) dissolved in 0.45% hydroxypropyl-o-cyclodextrin (0-CD) or vehicle (VEH) (0.45% j-CD) was available ad libitum in the drinking water in opaque bottles to protect it from light. VEH- and CORT-treated water was changed every 3 days to prevent possible degradation. Contextual Fear Conditioning (CFC): A 3-shock CFC procedure was administered as previously published. Briefly, mice were placed into context A and administered 3 2-s shocks (0.75 mA) at 180 s, 240 s or 300 s following placement into context A. Mice were removed from the context 15 s following the termination of shock (at 317 s). For context retrieval, mice were placed back into context A for 300 s. Electrophysiology: Electrophysiology was conducted as previously described. Statistical Analysis: Results from data analyses are expressed as means±SEM. Alpha was set to 0.05 for all analyses. Data were analyzed using GraphPad Prism v7.0 or v8.0. For all experiments, unless otherwise noted, one- or two-way ANOVAs with repeated-measures were applied to the data as appropriate. Significant main effects and/or interactions were followed by Fisher's PLSD post hoc analysis or unpaired t-tests. Drugs: All drugs were prepared in physiological saline and all injections were administered intraperitoneally (i.p.) in volumes of 0.1 cc per […] body weight unless otherwise noted. Fluoxetine hydrochloride (Flx): Flx (BioTrend Chemicals AG, BG197, Zurich, Germany) was administered in the drinking water (18 mg/kg/day) for 3 weeks before the start of CORT. […] (R,S)-ketamine (K): (R,S)-ketamine (Ketaset III, Ketamine HCl injection, Fort Dodge Animal Health, Fort Dodge, Iowa) was administered in a single dose at 30 mg/kg of body weight 1 week before the start of CFC. […] PF-04995274: PF-04995274 (Sigma, Catalog No. 1331782-27-4, St. Louis, Mo.) was administered a single dose at 3 or 10 mg/kg of body weight 1 week before the start of CFC. PF-04995274 was dissolved in saline using an ultrasonic homogenizer (BioLogics, Model 3000, Manassas, Va.). Osmotic minipump implantation: ALZET osmotic minipumps (Model 2004, […], 28 days) were implanted subcutaneously under isoflurane anesthesia as previously described [S2]. Osmotic minipumps were rotated under the skin two to three times per week. Behavioral Assays: All experiments were approved by the Institutional Animal Care and Use Committee (IACUC) at the New York Psychiatric Institute (NYSPI). […] Videos were scored using ANY-maze behavior tracking software (Stoelting, Wood Dale, Ill.). […]

[2] = test system: C57BL/6NTac mice; assay: Sucrose splash test (ST) in CORT model; details: male C57BL/6NTac; Flx 18 mg/kg/day or RS-67,333 1.5 mg/kg/day for 3 weeks prior to CORT
Description: This chronic CORT elevation dysregulates the hypothalamic-pituitary-adrenal axis (HPA) in a manner similar to that observed in clinical depression. The dose and duration of CORT treatment was selected based on previous studies. CORT (35 μg/ml, equivalent to about 5 mg/kg/day) dissolved in 0.45% hydroxypropyl-o-cyclodextrin (0-CD) or vehicle (VEH) (0.45% j-CD) was available ad libitum in the drinking water in opaque bottles to protect it from light. VEH- and CORT-treated water was changed every 3 days to prevent possible degradation. Contextual Fear Conditioning (CFC): A 3-shock CFC procedure was administered as previously published. Briefly, mice were placed into context A and administered 3 2-s shocks (0.75 mA) at 180 s, 240 s or 300 s following placement into context A. Mice were removed from the context 15 s following the termination of shock (at 317 s). For context retrieval, mice were placed back into context A for 300 s. Electrophysiology: Electrophysiology was conducted as previously described. Statistical Analysis: Results from data analyses are expressed as means±SEM. Alpha was set to 0.05 for all analyses. Data were analyzed using GraphPad Prism v7.0 or v8.0. For all experiments, unless otherwise noted, one- or two-way ANOVAs with repeated-measures were applied to the data as appropriate. […] Videos were scored using ANY-maze behavior tracking software (Stoelting, Wood Dale, Ill.). […]

[3] = test system: 129S6/SvEv mice; assay: 3-shock contextual fear conditioning (CFC); details: for p value, CFC Re-exposure Average Freezing (%), Fisher's LSD: FIG. 2D; for freezing at re-exposure to the training context (learned fear) vs saline: re-exposure 5 days later
Description: This chronic CORT elevation dysregulates the hypothalamic-pituitary-adrenal axis (HPA) in a manner similar to that observed in clinical depression. The dose and duration of CORT treatment was selected based on previous studies. CORT (35 μg/ml, equivalent to about 5 mg/kg/day) dissolved in 0.45% hydroxypropyl-o-cyclodextrin (0-CD) or vehicle (VEH) (0.45% j-CD) was available ad libitum in the drinking water in opaque bottles to protect it from light. VEH- and CORT-treated water was changed every 3 days to prevent possible degradation. Contextual Fear Conditioning (CFC): A 3-shock CFC procedure was administered as previously published. Briefly, mice were placed into context A and administered 3 2-s shocks (0.75 mA) at 180 s, 240 s or 300 s following placement into context A. Mice were removed from the context 15 s following the termination of shock (at 317 s). For context retrieval, mice were placed back into context A for 300 s. Electrophysiology: Electrophysiology was conducted as previously described. Statistical Analysis: Results from data analyses are expressed as means±SEM. Alpha was set to 0.05 for all analyses. Data were analyzed using GraphPad Prism v7.0 or v8.0. For all experiments, unless otherwise noted, one- or two-way ANOVAs with repeated-measures were applied to the data as appropriate. Significant main effects and/or interactions were followed by Fisher's PLSD post hoc analysis or unpaired t-tests. Drugs: All drugs were prepared in physiological saline and all injections were administered intraperitoneally (i.p.) in volumes of 0.1 cc per […] body weight unless otherwise noted. Fluoxetine hydrochloride (Flx): Flx (BioTrend Chemicals AG, BG197, Zurich, Germany) was administered in the drinking water (18 mg/kg/day) for 3 weeks before the start of CORT. […] (R,S)-ketamine (K): (R,S)-ketamine (Ketaset III, Ketamine HCl injection, Fort Dodge Animal Health, Fort Dodge, Iowa) was administered in a single dose at 30 mg/kg of body weight 1 week before the start of CFC. […] PF-04995274: PF-04995274 (Sigma, Catalog No. 1331782-27-4, St. Louis, Mo.) was administered a single dose at 3 or 10 mg/kg of body weight 1 week before the start of CFC. PF-04995274 was dissolved in saline using an ultrasonic homogenizer (BioLogics, Model 3000, Manassas, Va.). Osmotic minipump implantation: ALZET osmotic minipumps (Model 2004, […], 28 days) were implanted subcutaneously under isoflurane anesthesia as previously described [S2]. Osmotic minipumps were rotated under the skin two to three times per week. Behavioral Assays: All experiments were approved by the Institutional Animal Care and Use Committee (IACUC) at the New York Psychiatric Institute (NYSPI). Elevated Plus Maze (EPM): Testing was performed as previously described [S3]. Briefly, the maze is a plus-cross-shaped apparatus consisting of four arms, two open and two enclosed by walls, linked by a central platform at a height of 50 cm from the floor. Mice were individually placed in the center of the maze facing an open arm and were allowed to explore the maze for 5 min. The time spent in and the number of entries into the open arms was used as an anxiety index. Videos were scored using ANY-maze behavior tracking software (Stoelting, Wood Dale, Ill.). Novelty-Suppressed Feeding: The NSF is a conflict test that elicits competing motivations: the drive to eat and the fear of venturing into the center of a brightly lit arena. The latency to feed is used as an index of anxiety-like behavior, because classical anxiolytic drugs decrease this measure. The NSF test was carried out during an 8 min period as previously described [S3]. Briefly, the testing apparatus consisted of a plastic box (50×50×20 cm), the floor of which was covered with approximately 2 cm of bedding. For 129S6/SvEv experiments, mice were food restricted for 12 h. For the C57BL/6N experiments, mice were food restricted for 24 h. […]

[4] = FIG. 3 Acute RS67333 cohort, FIG. 3B, Fisher's PLSD

## CCCCN1CCC(CCC(=O)c2cc(Cl)c(N)cc2OC)CC1.Cl [RS-67,333, 1-(4-amino-5-chloro-2-methoxyphenyl)-3-[1(n-butyl)-4-piperidinyl]-1-propanone HCl]
[1]
  entries into the open arms of the EPM vs CORT+Veh: significantly more entries
  time spent in the open arms of the EPM vs VEH+Veh: did not alter
[2]
  grooming duration (ST) vs CORT+Veh: increased grooming duration
[3]; RS67333 (1.5 mg/kg) vs. (second group beyond the rows shown)
  p value, CFC Re-exposure Average Freezing (%), Fisher's LSD: 0.3259
[3]; RS67333 (1.5 mg/kg) vs. RS67333 (10 mg/kg)
  p value, CFC Re-exposure Average Freezing (%), Fisher's LSD: 0.8278
[3]; Saline vs. RS67333 (1.5 mg/kg)
  p value, CFC Re-exposure Average Freezing (%), Fisher's LSD: 0.0185
[3]; Saline vs. RS67333 (10 mg/kg)
  p value, CFC Re-exposure Average Freezing (%), Fisher's LSD: 0.0006
[3]; Saline vs. RS67333 (30 mg/kg)
  p value, CFC Re-exposure Average Freezing (%), Fisher's LSD: 0.2625
[3]; FIG. 2 cohort, post-hoc comparison, measurement head lies above the shown rows (block before FST)
  p, RS67333 (10 mg/kg) vs. RS67333 (30 mg/kg): 0.3050
[3]; [4]
  p, CFC Trainging Freezing (%), RS67333 (1.5 mg/kg) vs. RS67333 (10 mg/kg): 0.3858
  p, CFC Trainging Freezing (%), Saline vs. RS67333 (1.5 mg/kg): 0.0941
  p, CFC Trainging Freezing (%), Saline vs. RS67333 (10 mg/kg): 0.0076
[3]; FIG. 3 cohort, Fisher's PLSD
  p, CFC Training Freezing (min 1), RS67333 (1.5 mg/kg) vs. RS67333 (10 mg/kg): 0.9715
  p, CFC Training Freezing (min 1), Saline vs. RS67333 (1.5 mg/kg): 0.8847
  p, CFC Training Freezing (min 1), Saline vs. RS67333 (10 mg/kg): 0.9054
  p, CFC Training Freezing (min 3), RS67333 (1.5 mg/kg) vs. RS67333 (10 mg/kg): 0.8746
  p, CFC Training Freezing (min 3), Saline vs. RS67333 (1.5 mg/kg): 0.8999
  p, CFC Training Freezing (min 3), Saline vs. RS67333 (10 mg/kg): 0.9721
  p, CFC Training Freezing (min 4), RS67333 (1.5 mg/kg) vs. RS67333 (10 mg/kg): 0.7882
  p, CFC Training Freezing (min 4), Saline vs. RS67333 (1.5 mg/kg): 0.0168
  p, CFC Training Freezing (min 4), Saline vs. RS67333 (10 mg/kg): 0.0040
  p, CFC Training Freezing (min 5), RS67333 (1.5 mg/kg) vs. RS67333 (10 mg/kg): 0.0492
  p, CFC Training Freezing (min 5), Saline vs. RS67333 (1.5 mg/kg): 0.0117
  p, CFC Training Freezing (min 5), Saline vs. RS67333 (10 mg/kg): <0.0001
  p, CFC Training freezing (min 2), RS67333 (1.5 mg/kg) vs. RS67333 (10 mg/kg): 0.9854
  p, CFC Training freezing (min 2), Saline vs. RS67333 (1.5 mg/kg): 0.8966
  p, CFC Training freezing (min 2), Saline vs. RS67333 (10 mg/kg): 0.8719
[3]; female 129S6/SvEv, 1.5 or 10 mg/kg vs saline, 5 days after CFC
  freezing at re-exposure to the training context: comparable levels of freezing
[3]; female 129S6/SvEv, single injection 1 week before CFC, 1.5 or 10 mg/kg vs saline
  freezing during CFC training: comparable levels of freezing
[3]; male 129S6/SvEv, single i.p. injection 1 week before CFC, 30 mg/kg
  freezing during CFC training vs saline: significantly less freezing
[3]; male 129S6/SvEv, single i.p. injection 1 week before CFC, 1.5 mg/kg
  freezing at re-exposure to the training context (learned fear) vs saline: significantly less freezing
[3]; male 129S6/SvEv, single i.p. injection 1 week before CFC, 10 mg/kg
  freezing at re-exposure to the training context (learned fear) vs saline: significantly less freezing
